Results as given in patent US9302999B2, “Substituted triazoles as herbicides” (E. I. DU PONT DE NEMOURS AND COMPANY, priority 2012, dated 2016).

Assays:
[1] = test system: pigweed (Amaranthus retroflexus); assay: Test F postemergence: pigweed; assay type: in vivo; settings: scale 0 to 100
Text: Seeds of plant species selected from corn (Zea mays), soybean (Glycine max), velvetleaf (Abutilon theophrasti), lambsquarters (Chenopodium album), poinsettia, wild (wild poinsettia, Euphorbia heterophylla), pigweed, palmer (palmer pigweed, Amaranthus palmeri), waterhemp (common waterhemp, Amaranthus rudis), surinam grass (Brachiaria decumbens), crabgrass, Brazil (Brazilian crabgrass, Digitaria horizontalis), panicum, fall (fall panicum Panicum dichotomiflorum), crabgrass, large (large crabgrass, Digitaria sanguinalis), foxtail, giant (giant foxtail, Setaria faberii), foxtail, green (green foxtail Setaria viridis), goosegrass (Eleusine indica), ragweed (common ragweed, Ambrosia elatior), barnyardgrass (Echinochloa crus-galli), sandbur (southern sandbur, Cenchrus echinatus), arrowleaf sida (Sida rhombifolia), ryegrass, Italian (Italian ryegrass, Lolium multiflorum), dayflower, VA (Virginia (VA) dayflower, Commelina virginica), field bindweed (Convolvulus arvensis), cocklebur (common cocklebur, Xanthium strumarium), morningglory (Ipomoea coccinea), nightshade (eastern black nightshade, Solanum ptycanthum), kochia (Kochia scoparia), nutsedge, yellow (yellow nutsedge, Cyperus esculentus), johnsongrass (Sorghum halepense), smartweed (ladysthumb smartweed, Polygonum persicaria), and beggarticks (hairy beggarticks, Bidens pilosa), were planted into a silt loam soil and treated preemergence with test chemicals formulated in a non-phytotoxic solvent mixture which included a surfactant. At the same time, plants selected from these crop and weed species and also pigweed (Amaranthus retroflexus), waterhemp_RES1 (ALS/Triazine resistant common waterhemp, Amaranthus rudis) and waterhemp_RES2 (ALS/HPPD resistant common waterhemp, Amaranthus rudis) were planted in pots containing a planting medium comprising spaghnum peat moss, vermiculite, wetting agent and starter nutrients treated with postemergence applications of some of the test chemicals formulated in the same manner. Plants ranged in height from 2 to 18 cm for postemergence treatments (1- to 4-leaf stage).
Treated plants and controls were maintained in a greenhouse for 14 to 21 days, after which time all species were compared to controls and visually evaluated. Plant response ratings, summarized in Table E, are based on a scale of 0 to 100 where 0 is no effect and 100 is complete control. A dash (-) response means no test result.

[2] = test system: Waterhemp; assay: Test C preemergence: waterhemp; assay type: in vivo; settings: scale 0 (no effect) to 100 (complete control)

Row | Structure (SMILES) | Plant response rating, Pigweed ([1]; 8 g ai/ha) | Plant response rating, Pigweed ([1]; 16 g ai/ha) | Plant response rating, Pigweed ([1]; 31 g ai/ha) | Plant response rating, Pigweed ([1]; 62 g ai/ha) | Plant response rating, Pigweed ([1]; 125 g ai/ha) | Plant response rating, Waterhemp ([2]; 16 g ai/ha) | Plant response rating, Waterhemp ([2]; 31 g ai/ha)
1 | Cc1nn(-c2ccnc(Cl)c2)nc1Cc1ccnc(C(F)(F)F)c1 [Compound 141] | 90 | 95 | 95 | 95 | 95 | – | –
2 | FCc1nn(-c2ccc(F)cc2)nc1Oc1ccnc(C(F)(F)F)c1 [Compound 160] | – | – | – | – | – | 100 | –
3 | CCOc1nn(-c2ccc(Cl)cc2)nc1Cc1ccnc(C(F)(F)F)c1 [Compound 188] | – | – | – | – | – | – | 100
4 | CCOc1nn(-c2ccc(F)cc2)nc1Cc1ccnc(C(F)(F)F)c1 [Compound 196, 4-[[5-ethoxy-2-(4-fluorophenyl)-2H-1,2,3-triazol-4-yl]methyl]-2-(trifluoromethyl)pyridine] | 85 | 95 | 95 | 95 | 95 | – | –
